# Measurements taken from patent US9567371B2, “Short beta-defensin-derived peptides” (Yeda Research and Development Co. Ltd., priority 2009, dated 2017).
# Peptide text beside a SMILES is read from it.
# Tested on: pre-B-ALL G2 cells
# Experiment: Cell toxicity assay (propidium iodide exclusion, flow cytometry)
# Assay type: cell-based, human
# Conditions: 6 and 24 h, FIG. 1
# Protocol: FIG. 1. […] G2 cells (1×10^6/ml) were cultured in 96-well flat-bottom wells in serum free IMDEM culture medium supplemented with L-glutamine and antibiotics, for 6 and 24 h at 37° C. with the indicated peptides. Untreated cells served as a control. After treatment, cells were stained with propidium iodide (PI) and its exclusion was analyzed by flow cytometry. Data shown are the percentage of Pr (dead) cells. Vertical bars represent standard deviation of duplicate experiments. *P<0.05 compared to untreated control.
# Pre-B-ALL G2 cells and freshly isolated primary human CD3^+ T cells (1×10^6/ml) were cultured in 96-well flat-bottom wells in serum free IMDM or RPMI 1640 medium, respectively, both supplemented with L-glutamine and antibiotics, for 6 and 24 hrs at 37° C. (95% humidity, 5% CO2) with 10 μM, 100 μM or 1 mM of the peptides. Untreated cells served as a control. Cell viability was determined by propidium iodide (PI) exclusion by flow cytometry as described (Goichberg, P., et al., 2006).
# In order to test cytotoxicity of the peptides, human pre-B-ALL G2 cells and freshly isolated primary human CD3^+ T cells (1×10^6/ml) were cultured in with 10 μM, 100 μM or 1 mM of TL-1, AK-1 and cyclic TL-1, as described in the Material and Methods. All tested peptides were not toxic for G2 cells (FIG. 1) as well as for primary human T cells at 10 μM and 100 μM. Even in the highest concentration, 1 mM, the peptides killed only 8-12% and 14-16% cells treated for 6 and 24 hrs, respectively, indicating a very low cytotoxicity of the peptides.
smiles,measurement,value
"N=C(N)NCCC[C@@H]1NC(=O)CNC(=O)[C@H](CCCNC(=N)N)NC(=O)[C@H](CCCCN)NC(=O)[C@H](CCCCN)NC(=O)[C@H](CCCNC(=N)N)NC(=O)[C@H](CCCNC(=N)N)NC(=O)[C@H](CS)NC(=O)[C@H](CS)NC(=O)[C@H](CCCCN)NC1=O [cyclic TL-1, 1,10-cyclo[RGRKCCRRKK]] (cyclo(CCRRKKRGRK))",cellular toxicity (percentage of PI+ dead cells),Low cellular toxicity
